Source: ChEMBL document CHEMBL1153165, “Solvent-free, microwave assisted synthesis of polyhalo heterocyclic ketene aminals as novel anti-cancer agents” (Bioorg Med Chem Lett, 2010)
≈ marks a conversion by molar mass, not a printed value.

How the values were obtained:
Format in all cases: functional, cell-based
[1] = test system: SK-OV-3; assay: Antitumor activity against human SKOV3 cells by MTT assay
[2] = test system: HepG2; assay: Antitumor activity against human HepG2 cells by MTT assay
[3] = test system: K562; assay: Antitumor activity against human K562 cells by MTT assay
[4] = test system: A-431; assay: Antitumor activity against human A431 cells by MTT assay
[5] = test system: HL-60; assay: Antitumor activity against human HL60 cells by MTT assay

Row | IC50 [1] [µg/mL] | IC50 [2] [µg/mL] | IC50 [3] [µg/mL] | IC50 [4] [µg/mL] | IC50 [5] [µg/mL] | Structure (SMILES)
1 | 2.7 (≈ 6.06 µM) | 14.5 (≈ 32.5 µM) | 0.1 (≈ 0.224 µM) | 1 (≈ 2.24 µM) | 0.2 (≈ 0.449 µM) | N#Cc1c(Cl)c(Cl)c(C(C(=O)c2ccccc2)=C2NCCCCN2)c(C#N)c1Cl
2 | 4.9 (≈ 13.9 µM) | 2.5 (≈ 7.09 µM) | 0.09 (≈ 0.255 µM) | 3.9 (≈ 11.1 µM) | 0.02 (≈ 0.0567 µM) | CCOC(=O)C(=C1NCCN1)c1c(Cl)c(F)c(C#N)c(F)c1C#N
3 | 8.2 (≈ 19.7 µM) | 45.1 (≈ 108 µM) | 1.8 (≈ 4.32 µM) | 0.9 (≈ 2.16 µM) | 0.6 (≈ 1.44 µM) | N#Cc1c(F)c(Cl)c(C(C(=O)c2ccc(F)cc2)=C2NCCCN2)c(C#N)c1F
4 | 0.2 (≈ 0.453 µM) | 102 (≈ 231 µM) | 5.6 (≈ 12.7 µM) | 5.3 (≈ 12 µM) | 0.3 (≈ 0.68 µM) | N#Cc1c(F)c(C#N)c(C(C(=O)c2ccccc2)=C2NCCN2)c(F)c1Nc1ccccc1
5 | 8.6 (≈ 20.5 µM) | 47.5 (≈ 113 µM) | 1.6 (≈ 3.82 µM) | 1.8 (≈ 4.29 µM) | 0.3 (≈ 0.716 µM) | N#Cc1c(F)c(Cl)c(C(C(=O)c2ccc(Cl)cc2)=C2NCCN2)c(C#N)c1F
6 | 32.6 (≈ 84.7 µM) | 32.6 (≈ 84.7 µM) | 20.8 (≈ 54.1 µM) | 87.1 (≈ 226 µM) | 4.7 (≈ 12.2 µM) | N#Cc1c(F)c(Cl)c(C(C(=O)c2ccccc2)=C2NCCN2)c(C#N)c1F
7 | 1.1 (≈ 2.65 µM) | 9.8 (≈ 23.6 µM) | 22.6 (≈ 54.5 µM) | 0.7 (≈ 1.69 µM) | 0.05 (≈ 0.121 µM) | COc1ccc(C(=O)C(=C2NCCN2)c2c(Cl)c(F)c(C#N)c(F)c2C#N)cc1
8 | 10.4 (≈ 23.1 µM) | 31.8 (≈ 70.7 µM) | 0.2 (≈ 0.445 µM) | 1.1 (≈ 2.45 µM) | 2.1 (≈ 4.67 µM) | N#Cc1c(Cl)c(Cl)c(C(C(=O)c2ccc(F)cc2)=C2NCCCN2)c(C#N)c1Cl
9 | 2 (≈ 5.23 µM) | 29.2 (≈ 76.4 µM) | 0.9 (≈ 2.35 µM) | 0.5 (≈ 1.31 µM) | 0.04 (≈ 0.105 µM) | Cc1ccc(C(=O)C(=C2NCCN2)c2c(F)c(F)c(C#N)c(F)c2C#N)cc1
10 | 4.6 (≈ 11.1 µM) | 27.8 (≈ 67.3 µM) | 2.1 (≈ 5.09 µM) | 1.5 (≈ 3.63 µM) | 0.1 (≈ 0.242 µM) | N#Cc1c(F)c(Cl)c(C(C(=O)c2ccccc2)=C2NCCCCN2)c(C#N)c1F
11 | 9.2 (≈ 21.3 µM) | 15.8 (≈ 36.6 µM) | 1.4 (≈ 3.24 µM) | 4.1 (≈ 9.5 µM) | 15.7 (≈ 36.4 µM) | Cc1ccc(C(=O)C(=C2NCCN2)c2c(Cl)c(Cl)c(C#N)c(Cl)c2C#N)cc1
12 | 14.1 (≈ 39.6 µM) | 5.8 (≈ 16.3 µM) | 0.1 (≈ 0.281 µM) | 1.5 (≈ 4.22 µM) | 3.7 (≈ 10.4 µM) | CC(=O)C(=C1NCCN1)c1c(Cl)c(Cl)c(C#N)c(Cl)c1C#N
13 | 0.5 (≈ 1.25 µM) | 11 (≈ 27.5 µM) | 2.5 (≈ 6.24 µM) | 1.8 (≈ 4.5 µM) | 0.04 (≈ 0.0999 µM) | N#Cc1c(F)c(F)c(C(C(=O)c2ccc(F)cc2)=C2NCCCN2)c(C#N)c1F
14 | 30.3 (≈ 82.3 µM) | 9.1 (≈ 24.7 µM) | 19.6 (≈ 53.2 µM) | 5.5 (≈ 14.9 µM) | 0.2 (≈ 0.543 µM) | N#Cc1c(F)c(F)c(C(C(=O)c2ccccc2)=C2NCCN2)c(C#N)c1F
15 | 4.1 (≈ 10.6 µM) | 0.2 (≈ 0.519 µM) | 0.5 (≈ 1.3 µM) | 0.2 (≈ 0.519 µM) | 0.4 (≈ 1.04 µM) | CCOC(=O)C(=C1NCCN1)c1c(Cl)c(Cl)c(C#N)c(Cl)c1C#N
16 | 3.3 (≈ 9.81 µM) | 0.7 (≈ 2.08 µM) | 0.03 (≈ 0.0892 µM) | 3.7 (≈ 11 µM) | 0.02 (≈ 0.0595 µM) | CCOC(=O)C(=C1NCCN1)c1c(F)c(F)c(C#N)c(F)c1C#N
17 | 6.7 (≈ 16.8 µM) | 49.1 (≈ 123 µM) | 41.9 (≈ 105 µM) | 1.7 (≈ 4.26 µM) | 0.03 (≈ 0.0752 µM) | Cc1ccc(C(=O)C(=C2NCCN2)c2c(Cl)c(F)c(C#N)c(F)c2C#N)cc1
18 | 1.5 (≈ 4.65 µM) | 1.3 (≈ 4.03 µM) | 4.4 (≈ 13.6 µM) | 2.9 (≈ 8.99 µM) | 0.3 (≈ 0.93 µM) | CC(=O)C(=C1NCCN1)c1c(Cl)c(F)c(C#N)c(F)c1C#N
19 | 4.2 (≈ 10.6 µM) | 24.9 (≈ 62.8 µM) | 0.3 (≈ 0.757 µM) | 1.9 (≈ 4.79 µM) | 0.1 (≈ 0.252 µM) | N#Cc1c(F)c(F)c(C(C(=O)c2ccccc2)=C2NCCCCN2)c(C#N)c1F
20 | 6.4 (≈ 14.3 µM) | 10.8 (≈ 24.1 µM) | 0.08 (≈ 0.179 µM) | 0.5 (≈ 1.12 µM) | 2.3 (≈ 5.14 µM) | COc1ccc(C(=O)C(=C2NCCN2)c2c(Cl)c(Cl)c(C#N)c(Cl)c2C#N)cc1
21 | 1.6 (≈ 3.54 µM) | 5.2 (≈ 11.5 µM) | 0.8 (≈ 1.77 µM) | 1.5 (≈ 3.32 µM) | 0.5 (≈ 1.11 µM) | N#Cc1c(Cl)c(Cl)c(C(C(=O)c2ccc(Cl)cc2)=C2NCCN2)c(C#N)c1Cl
22 | 3.8 (≈ 9.43 µM) | 12.5 (≈ 31 µM) | 1.8 (≈ 4.47 µM) | 3.2 (≈ 7.95 µM) | 0.3 (≈ 0.745 µM) | N#Cc1c(F)c(F)c(C(C(=O)c2ccc(Cl)cc2)=C2NCCN2)c(C#N)c1F
23 | 9.9 (≈ 23.7 µM) | 10.2 (≈ 24.4 µM) | 8.5 (≈ 20.4 µM) | 2.3 (≈ 5.51 µM) | 9.1 (≈ 21.8 µM) | N#Cc1c(Cl)c(Cl)c(C(C(=O)c2ccccc2)=C2NCCN2)c(C#N)c1Cl
